Measured values as given in patent US11884612B2, “Covalent peptide binders” (The Regents of the University of California, priority 2016, dated 2024).
“Also recorded” adds a separate entry of the source. Positions of bridges follow the written chain, without caps; N, C: chain ends. Non-standard residues stand in square brackets, D forms with d. Residues, ends and D or L forms follow the SMILES beside them. *: point of attachment. Benzoyl(3-SO2F) = O=C(c1cccc(S(=O)(=O)F)c1)*; R8 = C=CCCCCCC[C@@](C)(N)C(=O)O; S5 = C=CCCC[C@](C)(N)C(=O)O; Dap = NC[C@H](N)C(=O)O

What was measured:
p53-Mdm4 interaction = target: T1, p53-Mdm4 interaction (Homo sapiens, UniProt O15151); test: ReBiL assay of peptide inhibition of p53-Mdm4 interaction in cell lysates; format: biochemical; conditions: Saos-2 cell lysates
T1 construct: expressed in transfected cells; host or cells: Saos-2 (p53-null) ReBiL reporter cells; lysate
T1 sequence (O15151 1-490): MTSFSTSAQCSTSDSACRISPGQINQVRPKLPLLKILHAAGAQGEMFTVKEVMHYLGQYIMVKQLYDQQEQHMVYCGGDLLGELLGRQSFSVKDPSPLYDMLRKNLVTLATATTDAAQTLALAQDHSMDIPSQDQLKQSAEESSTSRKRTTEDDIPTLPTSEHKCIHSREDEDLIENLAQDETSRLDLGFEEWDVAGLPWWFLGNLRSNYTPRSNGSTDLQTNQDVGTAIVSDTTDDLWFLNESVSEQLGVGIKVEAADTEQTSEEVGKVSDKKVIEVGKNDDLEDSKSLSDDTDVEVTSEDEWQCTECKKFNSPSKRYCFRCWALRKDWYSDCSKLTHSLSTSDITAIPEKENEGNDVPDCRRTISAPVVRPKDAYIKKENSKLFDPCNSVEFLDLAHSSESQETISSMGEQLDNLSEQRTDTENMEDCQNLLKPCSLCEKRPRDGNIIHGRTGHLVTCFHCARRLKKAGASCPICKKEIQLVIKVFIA
Text: In ReBiL, luciferase is split and separately fused to Mdm2/Mdm4 and p53, and the expression cassette is integrated into a single chromosomal site in host cells (FIG. 3A). Inhibition of the interaction between p53 and Mdm2/Mdm4 results in a decrease in luciferase activity.

His-tagged Mdm4 = test: Covalent binding to purified Mdm4 (anti-His immunoblot band shift, ESI-MS)
Text: FIG. 4. […] After separation by SDS-PAGE, an anti-His antibody was used to detect Mdm4.

Brca1-Bard1 interaction = target: T2, Brca1-Bard1 interaction (Homo sapiens, UniProt P38398+Q99728); test: ReBiL assay of peptide inhibition of Brca1-Bard1 interaction in cell lysates (binding selectivity); format: biochemical; conditions: cell lysates of Saos-2 cells
T2 construct: expressed in transfected cells; host or cells: Saos-2 ReBiL reporter cells; lysate
Description: To test the binding selectivity of peptides 2, 4 and 5, we then incubated the peptides with cell lysates of Saos-2 cells harboring ReBiL system expressing Brca1-Bard1 instead of p53-Mdm2/Mdmx.

p53 null Saos-2 cells = test: Cell viability (p53-independent cytotoxicity), CELL TITER-GLO assay; conditions: 37° C., 8 h, 50, 25, 12.5 uM
Description: Error bars are s.e.m. (n=5) and normalized to the luminescence reading of DMSO treated cells.
Cell viability was measured on the p53-null Saos-2 cells by CELL TITER-GLO® assay per Promega's instructions. Peptides were incubated with the Saos-2 cells at 37° C. for 8 h.

T2 sequence (P38398 whole entry): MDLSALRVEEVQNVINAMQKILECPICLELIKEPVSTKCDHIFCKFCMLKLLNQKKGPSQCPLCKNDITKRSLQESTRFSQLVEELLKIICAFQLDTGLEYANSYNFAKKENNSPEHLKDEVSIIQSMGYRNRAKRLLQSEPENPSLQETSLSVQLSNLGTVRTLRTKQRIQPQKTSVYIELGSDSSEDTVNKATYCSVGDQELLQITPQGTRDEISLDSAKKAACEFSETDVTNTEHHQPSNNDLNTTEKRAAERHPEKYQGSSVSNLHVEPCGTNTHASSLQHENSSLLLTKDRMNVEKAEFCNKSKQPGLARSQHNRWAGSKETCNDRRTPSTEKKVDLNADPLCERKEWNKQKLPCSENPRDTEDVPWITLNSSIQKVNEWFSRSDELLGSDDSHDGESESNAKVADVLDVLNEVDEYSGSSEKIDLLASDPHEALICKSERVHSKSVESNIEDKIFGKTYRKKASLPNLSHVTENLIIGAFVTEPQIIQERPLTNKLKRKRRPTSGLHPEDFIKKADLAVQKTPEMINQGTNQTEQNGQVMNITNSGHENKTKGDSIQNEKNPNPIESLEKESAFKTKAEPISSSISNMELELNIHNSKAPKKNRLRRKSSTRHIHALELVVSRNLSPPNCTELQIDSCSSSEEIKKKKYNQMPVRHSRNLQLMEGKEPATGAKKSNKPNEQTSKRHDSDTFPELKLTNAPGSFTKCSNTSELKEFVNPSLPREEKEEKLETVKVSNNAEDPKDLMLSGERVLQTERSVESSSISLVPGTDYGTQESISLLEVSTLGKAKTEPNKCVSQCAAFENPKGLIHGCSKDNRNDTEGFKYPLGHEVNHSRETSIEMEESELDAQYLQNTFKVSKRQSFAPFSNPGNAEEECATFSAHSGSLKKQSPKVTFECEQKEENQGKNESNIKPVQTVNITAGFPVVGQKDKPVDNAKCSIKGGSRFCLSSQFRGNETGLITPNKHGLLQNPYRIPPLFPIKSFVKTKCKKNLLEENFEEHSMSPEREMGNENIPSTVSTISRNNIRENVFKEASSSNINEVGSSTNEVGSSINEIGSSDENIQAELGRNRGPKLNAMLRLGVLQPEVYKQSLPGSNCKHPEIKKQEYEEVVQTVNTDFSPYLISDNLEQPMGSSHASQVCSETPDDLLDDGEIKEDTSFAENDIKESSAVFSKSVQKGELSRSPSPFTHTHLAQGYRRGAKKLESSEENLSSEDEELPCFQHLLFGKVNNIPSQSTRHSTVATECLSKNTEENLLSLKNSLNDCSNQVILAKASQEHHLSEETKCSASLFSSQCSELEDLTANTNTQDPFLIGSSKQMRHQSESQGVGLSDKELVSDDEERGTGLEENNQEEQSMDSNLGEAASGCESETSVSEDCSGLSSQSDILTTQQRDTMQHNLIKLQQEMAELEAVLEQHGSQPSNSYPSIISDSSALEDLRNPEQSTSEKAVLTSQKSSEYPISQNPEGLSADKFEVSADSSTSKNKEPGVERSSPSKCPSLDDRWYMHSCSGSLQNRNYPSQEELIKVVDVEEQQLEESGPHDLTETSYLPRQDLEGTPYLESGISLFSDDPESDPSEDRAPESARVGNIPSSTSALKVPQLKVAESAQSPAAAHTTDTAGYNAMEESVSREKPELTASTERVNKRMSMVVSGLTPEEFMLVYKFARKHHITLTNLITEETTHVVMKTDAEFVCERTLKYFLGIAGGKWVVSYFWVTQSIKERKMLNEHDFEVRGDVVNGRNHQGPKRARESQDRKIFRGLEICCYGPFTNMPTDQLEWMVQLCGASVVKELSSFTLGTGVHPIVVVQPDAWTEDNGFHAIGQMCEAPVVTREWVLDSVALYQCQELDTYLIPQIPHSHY
T2 sequence (Q99728 whole entry): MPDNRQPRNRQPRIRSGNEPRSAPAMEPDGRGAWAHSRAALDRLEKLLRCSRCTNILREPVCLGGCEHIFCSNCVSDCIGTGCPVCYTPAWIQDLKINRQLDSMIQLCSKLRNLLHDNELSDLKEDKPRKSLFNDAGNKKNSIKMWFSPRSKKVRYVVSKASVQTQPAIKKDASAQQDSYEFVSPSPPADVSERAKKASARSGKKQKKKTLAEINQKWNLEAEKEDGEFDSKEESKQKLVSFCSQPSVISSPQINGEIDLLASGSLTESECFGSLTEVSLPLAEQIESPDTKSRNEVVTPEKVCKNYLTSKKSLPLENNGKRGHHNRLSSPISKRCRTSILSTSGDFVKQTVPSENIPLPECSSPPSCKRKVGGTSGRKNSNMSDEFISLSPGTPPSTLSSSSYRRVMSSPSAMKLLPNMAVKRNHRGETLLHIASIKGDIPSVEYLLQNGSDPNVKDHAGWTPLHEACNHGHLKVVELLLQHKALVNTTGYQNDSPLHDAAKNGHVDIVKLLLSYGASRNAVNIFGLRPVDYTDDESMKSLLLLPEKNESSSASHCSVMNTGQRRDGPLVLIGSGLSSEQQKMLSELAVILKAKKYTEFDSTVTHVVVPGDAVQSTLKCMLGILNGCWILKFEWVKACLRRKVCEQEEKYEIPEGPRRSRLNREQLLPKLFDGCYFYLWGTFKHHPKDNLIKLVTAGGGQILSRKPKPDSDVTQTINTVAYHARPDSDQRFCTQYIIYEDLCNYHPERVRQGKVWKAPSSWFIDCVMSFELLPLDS

Compound: CC(=O)N[C@@H](CCC(N)=O)C(=O)N[C@@H](CO)C(=O)N[C@@H](CCC(N)=O)C(=O)N[C@@H](CCC(N)=O)C(=O)N[C@H](C(=O)N[C@@H](Cc1ccccc1)C(=O)N[C@]1(C)CCCCCCC=CCCC[C@@](C)(C(=O)N[C@@H](CCC(N)=O)C(=O)N[C@@H](CC(N)=O)C(N)=O)NC(=O)[C@H](CC(C)C)NC(=O)[C@H](CC(C)C)NC(=O)[C@H](CCCNC(=N)N)NC(=O)[C@H](Cc2c[nH]c3ccccc23)NC(=O)[C@H](CNC(=O)c2cccc(S(=O)(=O)F)c2)NC(=O)[C@H](CC(N)=O)NC1=O)[C@@H](C)O [Peptide 4] (Ac-QSQQTF[R8]N[Dap](Benzoyl(3-SO2F))WRLL[S5]QN-NH2; staple 7-14 (inferred))
- activity to Mdm4 relative to Mdm2 (p53-Mdm4 interaction): ten-fold higher
- time until crosslinking ("sulfate click reaction") with Mdm4 was complete (His-tagged Mdm4; 37° C., PBS buffer pH 7.5): ≤ 10 min
- shift of Mdm4 band to higher molecular weight (covalent binding), immunoblot (His-tagged Mdm4; Mdm4 1.5 μM, peptide 3 μM, PBS buffer pH 7.5, 37° C., 10, 20 and 60 min): shifted the Mdm4 band to a higher molecular weight; also recorded: shift of the band to a higher molecular weight
- covalent complex formation with Mdm4 by ESI-MS (His-tagged Mdm4; incubated 60 min): confirmed the covalent complex formation
- inhibition of Brca1-Bard1 interaction (Brca1-Bard1 interaction): did not inhibit
- cell viability / cytotoxicity (p53 null Saos-2 cells): no significant cytotoxicity; also recorded: nontoxic
